Data from patent US9992994B2, “Agricultural and detergent compositions containing a tertiary amide as adjuvant or as surfactant” (Taminco BVBA, priority 2011, dated 2018).
Where two headings read alike, the source gives them in different places.

Legend:
[1] = 20° C., cited from earlier work
[2] = compatibility of diquats with anionic surfactant in water; format: physicochemical; design: key: Cl. = Clear; Blu. = Bluish; Visc. = Viscous; Prec. = Precipitate; Turb. = Turbid; conditions: 1 wt % total surfactant in water, ambient temperature; for Compatibility observation, 100% of Diquat: 100% diquat; for Compatibility observation, 10% of Diquat / Compatibility observation, 20% of Diquat / Compatibility observation, 30% of Diquat / Compatibility observation, 40% of Diquat / Compatibility observation, 50% of Diquat / Compatibility observation, 60% of Diquat / Compatibility observation, 70% of Diquat / Compatibility observation, 80% of Diquat / Compatibility observation, 90% of Diquat: mixture with Sodium Laureth Sulfate; for Compatibility observation, 10% of Diquat: 10% diquat; for Compatibility observation, 20% of Diquat: 20% diquat; for Compatibility observation, 30% of Diquat: 30% diquat; for Compatibility observation, 40% of Diquat: 40% diquat; for Compatibility observation, 50% of Diquat: 50% diquat; for Compatibility observation, 60% of Diquat: 60% diquat; for Compatibility observation, 70% of Diquat: 70% diquat; for Compatibility observation, 80% of Diquat: 80% diquat; for Compatibility observation, 90% of Diquat: 90% diquat
Description: To delimit the applicability of the Diquats the compatibility in different ratios with LES was tested in the temperature range between 0° C. and 90° C. […] With a hydrocarbon tail of up to 10 carbon atoms no precipitation was observed and with increasing chain length only a very narrow region of mixing ratios led to an insoluble deposit.

[3] = solubility temperatures of 1 wt % solutions; format: physicochemical
[4] = tested on: common lambsquarter (Chenopodium album L.; CHEAL); assay: adjuvant for Carfentrazon-ethyl test; format: in vivo; conditions: Spotlight Plus, 7 DAT
Description: In this test we looked at the performance with Carfentrazone-ethyl (Spotlight Plus from FMC) on common lambsquarter (Chenopodium album L.; CHEAL).
After emergence, the seedlings were thinned to two plants per pot for the efficacy experiments. The common lambsquarters were treated at the four-leaf stage. The fresh weights of the plants were measured 7 days after treatment (7 DAT).
The following herbicide was used in the treatment solutions: Carfentrazone-ethyl, Spotlight Plus (FMC) ME formulation, 60 g a.i./L.
Demineralized water was used as the carrier.

winter wheat (cv. Ilias) = assay: adjuvant for glyphosate test on wheat; format: in vivo; conditions: where named, 0.25% w/v, 21 DAT; for Fresh Weight WHEAT: IPA-glyphosate 2.3 mM (77.8 g ae/ha at 200 L/ha); for Relative weight WHEAT (%): untreated plant = 100%, IPA-glyphosate 2.3 mM
Description: (§1) Wheat plants were used as a model for difficult to wet grasses and black nightshade was used as a model for a plant with an easy to wet but difficult to permeate leaf surface.
(§2) After emergence, the wheat seedlings were thinned to six plants per pot for the efficacy experiments. Black nightshade seedlings were thinned to one plant per pot. Black nightshade and wheat were treated at the four- and the three-leaf stage, respectively. The fresh weights of the plants were measured 14 days after treatment (14 DAT; black nightshade) or 21 days after treatment (21 DAT; wheat).
(§3) Demineralized water was used as the carrier. […] Based on previous work, these rates were 20.3 g ae/ha (equivalent to 0.6 mM) on black nightshade and 77.8 g ae/ha (equivalent to 2.3 mM at 200 L/ha) on wheat (ae=acid equivalent).
(§4) The fresh weight of the untreated plant was taken as a reference (100%). […] An industrial standard was also included in the test series.

Black nightshade (SOLNI) = assay: adjuvant for glyphosate test on black nightshade; format: in vivo; conditions: where named, 0.25% w/v, 14 DAT; for Fresh Weight SOLNI: IPA-glyphosate 0.6 mM (20.3 g ae/ha at 200 L/ha); for Relative weight SOLNI (%): untreated plant = 100%, IPA-glyphosate 0.6 mM
Description: as §1, §2, §3, §4

[5] = solubility / miscibility in water and dodecane; format: physicochemical
From the text: R1 is preferably an aliphatic group, in particular a fatty chain, having 5-13 carbon atoms (i.e. a C5 to C13 carbon chain), preferably 5-9 carbon atoms. This embodiment is especially advantageous when the amide is a diamine of formula (I). […] This is not only the case when one or more of the R2, R3, R4 and R5 groups are ethanol and/or tertiary propanol groups, but also when these groups are alkyl groups, in particular C1 to C3 alkyl groups. The R2, R3, R4 and R5 groups are preferably methyl groups. The corresponding DMAPA amides, on the other hand, show only poor water solubility.
Furthermore, they can be used efficiently in highly concentrated (so-called ‘high load’) agrochemical compositions to prevent phase separation to occur. The amphiphilic behaviour of the bisDMAPA amides is further illustrated in example 4.

[6] = Manometric Respirometry Test (biodegradability); conditions: after 28 days
Description: Biodegradability test of N,N-bis(3-(dimethylamino) propyl)-octanamide was tested in a Manometric Respirometry Test according to Commission Regulation 440/2008/EC, Method C.4-D of May 30, 2008: Manometric Respirometry Test (EEC Publication N° L142/496, May 2008).
The percentage of biodegradation was 65% after 28 days.

SMILES	Compatibility observation, 100% of Diquat [2]	Compatibility observation, 10% of Diquat [2]	Compatibility observation, 20% of Diquat [2]	Compatibility observation, 30% of Diquat [2]	Compatibility observation, 40% of Diquat [2]	Compatibility observation, 50% of Diquat [2]	Compatibility observation, 60% of Diquat [2]	Compatibility observation, 70% of Diquat [2]	Compatibility observation, 80% of Diquat [2]	Compatibility observation, 90% of Diquat [2]	also measured
CCNc1nc(Cl)nc(NC(C)C)n1 [Atrazine]	–	–	–	–	–	–	–	–	–	–	log Kow ([1]; no pH given): 2.6
CC(C)N1C(=O)c2ccccc2NS1(=O)=O [Bentazone]	–	–	–	–	–	–	–	–	–	–	log Kow ([1]; at pH 7): −0.5
CCCCCCCC(=O)N(CCC[N+](C)(C)Cc1ccccc1)CCC[N+](C)(C)Cc1ccccc1.[Br-].[Br-] [C8BnBr]	Cl.	Cl.	Cl.	Cl.	Prec.	Prec.	Prec.	Prec.	Prec.	Prec.	–
CCCCCCCC(=O)N(CCC[N+](C)(C)C)CCC[N+](C)(C)C.[Cl-].[Cl-] [C8MeCl]	Cl.	Cl.	Cl.	Cl.	Cl.	Cl.	Cl.	Cl.	Cl.	Cl.	–
CCCCCCCC[N+](C)(C)CCCN(CCC[N+](C)(C)CCCCCCCC)C(=O)CCCCCCC.[Br-].[Br-] [C8OcBr]	Cl.	Cl.	Cl.	Blu.	Blu.	Turb.	Turb.	Turb.	Cl.	Cl.	–
CCCCCCCCCC(=O)N(CCC[N+](C)(C)C)CCC[N+](C)(C)C.[Cl-].[Cl-] [C10MeCl]	Cl.	Cl.	Cl.	Cl.	Cl.	Turb.	Cl.	Cl.	Cl.	Cl.	–
CCCCCCCCCCCC(=O)N(CCC[N+](C)(C)C)CCC[N+](C)(C)C.[Cl-].[Cl-] [C12MeCl]	Cl.	Cl.	Cl.	Cl.	Blu.	Cl.	Cl.	Cl.	Cl.	Cl.	–
CCCCCCCCCCCCCC(=O)N(CCC[N+](C)(C)C)CCC[N+](C)(C)C.[Cl-].[Cl-] [C14MeCl]	Cl.	Cl.	Cl.	Cl.	Prec.	Cl.	Cl.	Cl.	Cl.	Cl.	–
CCCCCCCCCCCCCCCC(=O)N(CCC[N+](C)(C)C)CCC[N+](C)(C)C.[Cl-].[Cl-] [C16MeCl]	Cl.	Cl.	Cl.	Visc.	Prec.	Cl.	Cl.	Cl.	Cl.	Cl.	–
CCCCCCCCCCCCCCCCCC(=O)N(CCC[N+](C)(C)C)CCC[N+](C)(C)C.[Cl-].[Cl-] [C18MeCl]	Cl.	Cl.	Cl.	Cl.	Turb.	Visc.	Cl.	Cl.	Cl.	Cl.	–
CCCCCCCCCCCCCCCC[N+](C)(C)C.[Br-] [CTAB, Cetrimonium bromide]	–	–	–	–	–	–	–	–	–	–	Solubility temperatures [° C.] 1 wt % [3]: 25 °C
CCOC(=O)C(Cl)Cc1cc(-n2nc(C)n(C(F)F)c2=O)c(F)cc1Cl (stereo not shown) [Carfentrazone-ethyl]	–	–	–	–	–	–	–	–	–	–	log Kow ([1]; no pH given): 3.4; Fresh Weight CHEAL (g) Herbicide + Adjuvant ([4]; sub-optimal rate + N,N-bis(3-(dimethylamino)propyl)octanamide 0.25% (w/v)): 0.7 g; Fresh weight CHEAL (g) Only herbicide ([4]; sub-optimal rate, no adjuvant, average of four replicates): 4.9 g
CCCCCCCCCCCC[N+](C)(C)C.[Br-] [DTAB, Dodecyl Trimethyl Ammonium Bromide]	–	–	–	–	–	–	–	–	–	–	Solubility temperatures [° C.] 1 wt % [3]: <0 °C
CC(C)N.O=C(O)CNCP(=O)(O)O [IPA-glyphosate, reference compound]	–	–	–	–	–	–	–	–	–	–	Fresh Weight WHEAT (winter wheat (cv. Ilias)): 12.6 g; Relative weight WHEAT (%) (winter wheat (cv. Ilias)): 71.7%; Fresh Weight SOLNI (Black nightshade (SOLNI)): 6.4 g; Relative weight SOLNI (%) (Black nightshade (SOLNI)): 55.2%
CCCCCCCC(=O)N(CCCN(C)C)CCCN(C)C [N,N-bis(3-(dimethylamino)propyl)octanamide]	–	–	–	–	–	–	–	–	–	–	Fresh Weight WHEAT (winter wheat (cv. Ilias)): 2.3 g; Relative weight WHEAT (%) (winter wheat (cv. Ilias)): 13.0%; solubility in dodecane [5]: completely soluble; solubility in water [5]: completely soluble; biodegradability classification [6]: Readily Biodegradable; percentage of biodegradation [6]: 65%; Fresh Weight SOLNI (Black nightshade (SOLNI)): 1.6 g; Relative weight SOLNI (%) (Black nightshade (SOLNI)): 14.1%
CCCCCCCCCCCC(=O)[O-].[Na+] [NaC12, Sodium Laurate]	–	–	–	–	–	–	–	–	–	–	Solubility temperatures [° C.] 1 wt % [3]: 25 °C
COc1cc(OC)nc(NC(=O)NS(=O)(=O)c2ncccc2C(=O)N(C)C)n1 [Nicosulfuron]	–	–	–	–	–	–	–	–	–	–	log Kow ([1]; at pH 7): 0
CCCCCCCCCCCC(=O)N(CCC[N+](C)(C)C)CCC[N+](C)(C)C.[Cl-].[Cl-] [R2, R3, R4, R5, R6 = —CH3 R1 = —C11H23]	–	–	–	–	–	–	–	–	–	–	Fresh Weight WHEAT (winter wheat (cv. Ilias)): 14.8 g; Relative weight WHEAT (%) (winter wheat (cv. Ilias)): 83.8%; Fresh Weight SOLNI (Black nightshade (SOLNI)): 5.8 g; Relative weight SOLNI (%) (Black nightshade (SOLNI)): 50.0%
CCCCCCCCCCCCCCCCCC(=O)N(CCC[N+](C)(C)C)CCC[N+](C)(C)C.[Cl-].[Cl-] [R2, R3, R4, R5, R6 = —CH3 R1 = —C17H35]	–	–	–	–	–	–	–	–	–	–	Fresh Weight WHEAT (winter wheat (cv. Ilias)): 14.7 g; Relative weight WHEAT (%) (winter wheat (cv. Ilias)): 83.5%; Fresh Weight SOLNI (Black nightshade (SOLNI)): 2.8 g; Relative weight SOLNI (%) (Black nightshade (SOLNI)): 24.0%
